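The compound was tested at five concentrations on cells cultured in 96-well plates, with a 48-hour exposure period. GI50 = concentration required for 50% inhibition of growth.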 Calls of active or inactive are those of the source. Cut-off read from the data, not from the text of the source: active = GI50 up to about 1.1 µM and inactive = higher.
Tests used:
Assay in all cases: inhibition of tumour cell growth, NCI panel, 48 h
A549 = tested on: A549
SNB-19 = tested on: SNB-19
SF-268 = tested on: SF-268
HCT-15 = tested on: HCT-15
HT-29 = tested on: HT-29
U-251 = tested on: U-251
COLO 205 = tested on: COLO 205
NCI-H522 = tested on: NCI-H522
KM12 = tested on: KM12
CCRF-CEM = tested on: CCRF-CEM
MOLT-4 = tested on: MOLT-4
SK-MEL-5 = tested on: SK-MEL-5
MDA-N = tested on: MDA-N
BT-549 = tested on: BT-549
LOX IMVI = tested on: LOX IMVI
CAKI-1 = tested on: CAKI-1
SR = tested on: SR

| Compound | GI50 (A549) | GI50 (SNB-19) | GI50 (SF-268) | GI50 (HCT-15) [µM] | GI50 (HT-29) | GI50 (U-251) | GI50 (COLO 205) | GI50 (NCI-H522) | GI50 (KM12) | GI50 (CCRF-CEM) | GI50 (MOLT-4) | GI50 (SK-MEL-5) | GI50 (MDA-N) | GI50 (BT-549) | GI50 (LOX IMVI) | GI50 (CAKI-1) | GI50 (SR) |
| --- | --- | --- | --- | --- | --- | --- | --- | --- | --- | --- | --- | --- | --- | --- | --- | --- | --- |
| C(=N\N=C1NCCCN1)/c1ccc2ccccc2c1 | 9.23 µM (inactive) | 14.7 µM (inactive) | 14.2 µM (inactive) | 13.7 | 8.39 µM (inactive) | 6.53 µM (inactive) | 5.93 µM (inactive) | 15.1 µM (inactive) | 13.6 µM (inactive) | 11.2 µM (inactive) | 1.95 µM (inactive) | 3.47 µM (inactive) | 8.97 µM (inactive) | 17.4 µM (inactive) | 9.14 µM (inactive) | – | – |
| COC(=O)C1C2C=CC(C2)N1S(=O)(=O)c1ccccc1 (stereo not given) | > 100 µM (inactive) | > 100 µM (inactive) | > 100 µM (inactive) | > 100 | > 100 µM (inactive) | > 100 µM (inactive) | > 100 µM (inactive) | > 100 µM (inactive) | > 100 µM (inactive) | – | > 100 µM (inactive) | > 100 µM (inactive) | > 100 µM (inactive) | – | – | > 100 µM (inactive) | – |
| COc1ccc(/C=C2/S/C(=N\c3ccccc3)N(NC(=O)Cc3ccccc3)C2=O)c(OC)c1 | > 100 µM (inactive) | > 100 µM (inactive) | > 100 µM (inactive) | > 100 | > 100 µM (inactive) | > 100 µM (inactive) | > 100 µM (inactive) | – | > 100 µM (inactive) | 82.6 µM (inactive) | 68.7 µM (inactive) | 69.5 µM (inactive) | > 100 µM (inactive) | – | – | – | – |
| O=C(/C=C1\Nc2ccccc2N=C1NC12CC3CC(CC(C3)C1)C2)c1ccc(Br)cc1 | > 10 µM (inactive) | > 10 µM (inactive) | > 10 µM (inactive) | > 10 | > 10 µM (inactive) | > 10 µM (inactive) | > 10 µM (inactive) | > 10 µM (inactive) | > 10 µM (inactive) | > 10 µM (inactive) | > 10 µM (inactive) | > 10 µM (inactive) | > 10 µM (inactive) | > 10 µM (inactive) | > 10 µM (inactive) | > 10 µM (inactive) | – |
| CC(=O)Nc1ccc2cc(C#N)c(=O)[nH]c2n1 | > 100 µM (inactive) | > 100 µM (inactive) | > 100 µM (inactive) | > 100 | – | 81.3 µM (inactive) | > 100 µM (inactive) | > 100 µM (inactive) | 64.3 µM (inactive) | – | > 100 µM (inactive) | > 100 µM (inactive) | > 100 µM (inactive) | > 100 µM (inactive) | > 100 µM (inactive) | > 100 µM (inactive) | – |
| CCCC/C=C/C/C=C/CCCCCCCCC(=O)OCC1CCCN2CCCCC12 (stereo not given) | > 100 µM (inactive) | > 100 µM (inactive) | > 100 µM (inactive) | > 100 | > 100 µM (inactive) | > 100 µM (inactive) | 93.3 µM (inactive) | – | > 100 µM (inactive) | 28.5 µM (inactive) | > 100 µM (inactive) | > 100 µM (inactive) | > 100 µM (inactive) | 15.6 µM (inactive) | 76.9 µM (inactive) | 31 µM (inactive) | – |
| CCOC(=O)C1(C(=O)OCC)C[C@H](C)[C@](C)(O)C1 | > 100 µM (inactive) | > 100 µM (inactive) | > 100 µM (inactive) | > 100 | > 100 µM (inactive) | > 100 µM (inactive) | > 100 µM (inactive) | > 100 µM (inactive) | > 100 µM (inactive) | > 100 µM (inactive) | > 100 µM (inactive) | > 100 µM (inactive) | > 100 µM (inactive) | – | > 100 µM (inactive) | > 100 µM (inactive) | > 100 µM (inactive) |
| CC1(C)CS(=O)(=O)CC(C)(C)C(=N/N)/C1=N\N | > 100 µM (inactive) | > 100 µM (inactive) | > 100 µM (inactive) | > 100 | > 100 µM (inactive) | > 100 µM (inactive) | > 100 µM (inactive) | > 100 µM (inactive) | > 100 µM (inactive) | – | – | > 100 µM (inactive) | > 100 µM (inactive) | – | > 100 µM (inactive) | > 100 µM (inactive) | > 100 µM (inactive) |
| Nc1ncnc2c1ncn2C(=O)NC12CC3CC(CC(C3)C1)C2 | > 100 µM (inactive) | > 100 µM (inactive) | > 100 µM (inactive) | > 100 | > 100 µM (inactive) | > 100 µM (inactive) | > 100 µM (inactive) | – | > 100 µM (inactive) | 44 µM (inactive) | > 100 µM (inactive) | > 100 µM (inactive) | > 100 µM (inactive) | > 100 µM (inactive) | > 100 µM (inactive) | > 100 µM (inactive) | – |

— ChEMBL document CHEMBL1201862, “PubChem BioAssay data set” (2004)
